Earlier results, collected in patent US20010034325A1, “Dietary modulators of gamma glutamyl transpeptidase” (priority 2000, published 2001).

Tests used:
GGTP = GGTP (Homo sapiens, UniProt P19440); conditions: Misra et al. 1996
GGT = conditions: 12-o-tetradecanoyl phorbol-13-acetate induced activity

Sequence of GGTP (P19440 whole entry): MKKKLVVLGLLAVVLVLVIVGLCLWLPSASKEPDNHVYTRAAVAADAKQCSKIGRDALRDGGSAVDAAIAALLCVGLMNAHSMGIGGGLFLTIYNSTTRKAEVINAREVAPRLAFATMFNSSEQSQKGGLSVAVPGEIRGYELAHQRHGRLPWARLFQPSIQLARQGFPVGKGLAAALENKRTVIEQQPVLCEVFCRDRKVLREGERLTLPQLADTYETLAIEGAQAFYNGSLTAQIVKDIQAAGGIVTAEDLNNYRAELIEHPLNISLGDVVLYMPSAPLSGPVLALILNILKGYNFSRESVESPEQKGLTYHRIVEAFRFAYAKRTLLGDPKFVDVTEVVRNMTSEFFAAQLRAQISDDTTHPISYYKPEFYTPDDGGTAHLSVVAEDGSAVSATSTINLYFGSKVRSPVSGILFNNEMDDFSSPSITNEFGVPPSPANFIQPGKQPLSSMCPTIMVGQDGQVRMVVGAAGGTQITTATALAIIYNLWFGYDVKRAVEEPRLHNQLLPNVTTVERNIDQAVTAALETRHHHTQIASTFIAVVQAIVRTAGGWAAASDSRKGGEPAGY

Q: With `N[C@H](C(=O)O)[C@@H]1CC(Cl)=NO1` [acivicin] as the compound, how does the effect on diabetes (GGTP) read?
A: The effect on diabetes was “prevents overt diabetes”.

Q: For `C=CCSCC=C` [diallylsulfide (DAS), diallylsulfide], which “inhibition of GGT levels” value (GGT) is on record?
A: The value was “inhibited significantly”.

Q: For `OCc1c[nH]c2ccccc12` [indole-3-carbinol (I3C), indole-3-carbinol], which “inhibition of GGT levels” value (GGT) is on record?
A: Its value is “inhibited significantly”.
